In patent US9206236B2, “Peptides for treating cancer” (Gene Signal International SA, priority 2010, dated 2015):
“Also recorded” adds a separate entry of the source. Where a SMILES comes first, the peptide text is derived from it. [ ]: non-standard residue; d: D form. pY = N[C@@H](Cc1ccc(OP(=O)(O)O)cc1)C(=O)O

Experiments:
[1] = system: human microvascular endothelial cells (HMEC); experiment: In vitro angiogenesis assay (Matrigel tube formation); type: cell-based; settings: 500 μg/ml final concentration of peptide, images at 18 h
Method: Angiogenesis of human microvascular endothelial cells (HMEC) was induced in vitro using a Matrigel assay described by Al-Mahmood et al (2009, JPET, 2009; 58:933). This method is based on the differentiation of endothelial cells to form capillary structures on a Matrigel Matrix. Matrigel is prepared the Engelbreth-Holm-Swarm (EHS) mouse tumor, which represents a complex mixture of basement membrane proteins including type IV collagen, entactin, proteo-heparan sulfate and other growth factors.
Briefly, 250 μl of Matrigel were transferred to each well of a 24-well culture plate and incubated at 37° C. for 30 min to allow for the matrix solution to solidify. HMEC grown in complete growth medium EGM-2MV were harvested by trypsin, suspended in the same growth medium and 500 μl containing 70 000 cells were added on top of the solidified Matrigel in each well and in the presence or absence of peptide. Cells were maintained in a humidified atmosphere air containing 5% CO2 at 37° C. for 18-24 hrs. Endothelial tube formation was observed and photographed under an inverted light microscope.
The designed tyrosine phosphorylated and non phosphorylated peptides were tested for their influence onto the in vitro angiogenesis. The results of the in vitro angiogenesis assay were presented in FIG. 1, using HMEC and 500 μg/ml final concentration of each peptide.

mTOR = mTOR status in HMEC after incubation with peptides (anti-mTor antibody Ser2448); type: cell-based, human
Method: (§1) Human EC grown in EGM-2MV (80% confluence) were incubated with the peptides of the invention or vehicle for the indicated time, washed three times in cold PBS and directly lysed in 2 ml of ice-cold lysis buffer (10 mM Tris pH 7.5, 150 mM NaCl, 1 mM PMSF, 0.5 μg/ml leupeptin, 1 μg/ml pepstatin A, and 1 μg/ml aprotinin) by incubation for 30 min at 4° C. Cell lysate were spun at […] for 10 min, insoluble materials were discarded, and protein contents measured by Bradford assay of supernatants were adjusted. Cell lysate (1 ml) was precleared with 25 μl of protein G-plus agarose beads (Santa Cruz) for 30 min, and proteins were then immunoprecipitated by adding 2 μg of the indicated antibody and incubated for 1 hr. The immunocomplex was pulled down with protein G-plus agarose beads and the beads were washed three times with lysis buffer. The immunoprecipitates were separated by NuPAGE® 4-12% Bis-Tris gel electrophoresis under reducing conditions, transferred to PVDF membrane (Novex System, Invitrogen), and the membrane was blocked with 5% (w/v) non-fat milk in TBS containing 0.1% v/v Tween-20 for 1 hr.
The status of mTOR in the HMEC following incubation with peptides GS-0 and GS-1 was investigated.

[2] = Solubility of peptides in 10% DMSO in PBS; type: physicochemical; settings: 1 mg of peptide/ml of 10% DMSO in PBS
Method: GS-1 as well as the control peptide GS-0 were solubilized in DMSO and the resulting solutions were diluted 10 times with phosphate buffer saline (PBS) to obtain a concentration of 1 mg of peptide/ml of 10% DMSO in PBS. At this concentration, all peptides were soluble in 10% DMSO.
GS-2 as well as the control peptide GS-0 were solubilized in DMSO and the resulting solutions were diluted 10 times with phosphate buffer saline (PBS) to obtain a concentration of 1 mg of peptide/ml of 10% DMSO in PBS. At this concentration, all peptides were soluble in 10% DMSO.

[3] = Body weight and toxicity of mice bearing NCI-H460 tumors (Example 2); type: in vivo
Method: All experiments were reviewed by the Genopole's institutional animal care and use committee and were performed in accordance with institutional guidelines for animal care. Female BALB/c nu/nu mice (n=30) were used at 5-6 weeks of age. The animals were housed in laminar air-flow cabinets under pathogen-free conditions with a 12 h light/12 h dark schedule, and fed autoclaved standard chow and water ad libitum. […] Tumor cells (10^7 cells in 200 μl of HBSS) were injected subcutaneously into the right flanks of mice. […] At tumor volume about 150 mm3, animals were randomized, and separated into five groups of five animals. Control mice (group 1) were intraperitoneally injected with vehicle (10% DMSO in buffer saline) every day. GS-0 was dissolved in vehicle and intraperitoneally injected (group 2) every day (12 injections). GS-1 was dissolved in vehicle and intraperitoneally injected (group 3) every day (12 injections). Tumor volume and body weight were measured every other day over the treatment period (12 days).

NCI-H460 tumors = experiment: NCI-H460 tumor xenograft in nude mice, tumor volume (Example 2); type: in vivo
Method: H460 cell line has cytology compatible with human Non-Small Cell Lung Cancer (NSCL). Cells were grown in MEM medium containing 10% FCS at 37° C., 5% CO2 humidified atmosphere. The absence of mycoplasms was confirmed by using the PCR Mycoplasma Detection kit (Takara). All experiments were reviewed by the Genopole's institutional animal care and use committee and were performed in accordance with institutional guidelines for animal care. Female BALB/c nu/nu mice (n=30) were used at 5-6 weeks of age. The animals were housed in laminar air-flow cabinets under pathogen-free conditions with a 12 h light/12 h dark schedule, and fed autoclaved standard chow and water ad libitum. The NCI-H460 human NSCL cell line was obtained from American Type Culture Collection (ATCC) and cells were grown in RPMI medium 1640 supplemented with 1 μM sodium pyruvate. Tumor cells (10^7 cells in 200 μl of HBSS) were injected subcutaneously into the right flanks of mice. After engraftment, tumor volume was measured by Vernier callipers, and calculated as described in Balsari A et al. (Balsari A et al. (2004) Eur J Cancer 40: 1275-1281). At tumor volume about 150 mm3, animals were randomized, and separated into five groups of five animals. Control mice (group 1) were intraperitoneally injected with vehicle (10% DMSO in buffer saline) every day. GS-0 was dissolved in vehicle and intraperitoneally injected (group 2) every day (12 injections). GS-1 was dissolved in vehicle and intraperitoneally injected (group 3) every day (12 injections). Tumor volume and body weight were measured every other day over the treatment period (12 days). GS-1 as well as the control peptide GS-0 were solubilized in DMSO and the resulting solutions were diluted 10 times with phosphate buffer saline (PBS) to obtain a concentration of 1 mg of peptide/ml of 10% DMSO in PBS. At this concentration, all peptides were soluble in 10% DMSO.

[4] = target: T1, recruitment of the regulatory subunit (p85) of the enzyme PI-3K by IRS-1 (Homo sapiens, UniProt P27986); experiment: Recruitment of p85 of PI-3K by IRS-1 (IRS-1 immunoprecipitation, anti-p85 immunoblot) in HMEC; type: cell-based; settings: final concentration of peptide 500 μg/ml
T1 construct: endogenous in cells; host or cells: human microvascular endothelial cells (HMEC)
T1 sequence (P27986 whole entry): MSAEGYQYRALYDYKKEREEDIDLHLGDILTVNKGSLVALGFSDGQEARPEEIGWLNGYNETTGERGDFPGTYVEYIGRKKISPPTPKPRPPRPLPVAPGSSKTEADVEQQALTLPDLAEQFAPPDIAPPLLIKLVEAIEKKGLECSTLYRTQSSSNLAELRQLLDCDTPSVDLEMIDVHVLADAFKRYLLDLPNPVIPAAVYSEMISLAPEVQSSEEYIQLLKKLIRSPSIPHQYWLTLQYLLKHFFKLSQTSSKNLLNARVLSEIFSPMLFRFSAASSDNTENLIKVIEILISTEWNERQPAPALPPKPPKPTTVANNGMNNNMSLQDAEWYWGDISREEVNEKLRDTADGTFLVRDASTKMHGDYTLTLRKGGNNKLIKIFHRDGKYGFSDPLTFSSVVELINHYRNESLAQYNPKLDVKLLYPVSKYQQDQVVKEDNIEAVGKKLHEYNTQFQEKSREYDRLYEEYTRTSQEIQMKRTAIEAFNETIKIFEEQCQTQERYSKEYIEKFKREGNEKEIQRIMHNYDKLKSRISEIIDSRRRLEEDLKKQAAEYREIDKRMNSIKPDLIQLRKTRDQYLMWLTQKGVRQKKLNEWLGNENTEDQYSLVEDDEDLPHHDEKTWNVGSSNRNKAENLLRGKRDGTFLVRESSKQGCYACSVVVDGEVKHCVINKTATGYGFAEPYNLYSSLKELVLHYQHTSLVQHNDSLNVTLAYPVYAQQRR
Method: as §1
As it is widely admitted that the tyrosine phosphorylation of IRS-1 leads to its association with the regulatory subunit (p85) of the enzyme PI-3K, and this event lead to important increases in the enzymatic activity of this later, we have investigated the influence of the tyrosine phosphorylated and non phosphorylated peptides onto the recruitment of the regulatory subunit (p85) of the enzyme PI-3K by IRS-1. For that, human microvascular endothelial cells (HMEC) were incubated with the tyrosine phosphorylated and non phosphorylated peptides (final concentration of peptide 500 μg/ml) followed by cells lysis and immuoprecipitation of the protein IRS-1. The immunoprecipitates were then resolved in SDS-PAGE, proteins were transferred to membranes, and the membranes were immunoblotted with an anti-p85 PI3K monoclonal antibody.

DpYMTMQ (Ac-D[pY]MTMQ-NH2) [GS-3, tyrosine phosphorylated peptide]
in vitro angiogenesis-inhibitory activity [1]: have in vitro angiogenesis-inhibitory activities

CSCC[C@H](NC(=O)[C@H](Cc1ccccc1)NC(=O)[C@H](CCSC)NC(=O)[C@H](Cc1ccc(OP(=O)(O)O)cc1)NC(=O)CNC(C)=O)C(=O)N[C@@H](CO)C(N)=O [GS-1, GpYMFMS] (Ac-G[pY]MFMS-NH2)
amounts of mTOR in HMEC relative to vehicle (mTOR): much less amounts of mTOR
solubility in 10% DMSO [2]: soluble
toxicity and body weight loss during treatment ([3]; 8 mg/kg intraperitoneally every day, 12 injections): No toxicity and no body weight loss
Mean body weight D1 ([3]; Table 1, 8 mg/kg i.p. daily, day 1, in g): 23.58
Mean body weight D3 ([3]; Table 1, 8 mg/kg i.p. daily, day 3, in g): 23.27
Mean body weight D5 ([3]; Table 1, 8 mg/kg i.p. daily, day 5, in g): 20.69
Mean body weight D7 ([3]; Table 1, 8 mg/kg i.p. daily, day 7, in g): 23.29
Mean body weight D9 ([3]; Table 1, 8 mg/kg i.p. daily, day 9, in g): 23.72
Mean body weight D11 ([3]; Table 1, 8 mg/kg i.p. daily, day 11, in g): 23.81
Mean body weight D13 ([3]; Table 1, 8 mg/kg i.p. daily, day 13, in g): 23.48
influence on the in vivo growth of the tumor NCI-H460 (in words) (NCI-H460 tumors; 8 mg/kg i.p. daily for 12 days): highly significant and potent influence; also recorded: statistically significant and potent anti-tumoral activity
mean tumor volume at the end of treatment (NCI-H460 tumors; 8 mg/kg i.p. daily for 12 days, n=5): 234.98 ± 69.22 mm^3
Mean tumor volume D1 (NCI-H460 tumors; Table 2, 8 mg/kg i.p. daily, day 1): 114 mm³
Mean tumor volume D3 (NCI-H460 tumors; Table 2, 8 mg/kg i.p. daily, day 3): 133 mm³
Mean tumor volume D5 (NCI-H460 tumors; Table 2, 8 mg/kg i.p. daily, day 5): 124 mm³
Mean tumor volume D7 (NCI-H460 tumors; Table 2, 8 mg/kg i.p. daily, day 7): 141 mm³
Mean tumor volume D9 (NCI-H460 tumors; Table 2, 8 mg/kg i.p. daily, day 9): 231 mm³
Mean tumor volume D11 (NCI-H460 tumors; Table 2, 8 mg/kg i.p. daily, day 11): 334 mm³
Mean tumor volume D13 (NCI-H460 tumors; Table 2, 8 mg/kg i.p. daily, day 13): 235 mm³
in vitro angiogenesis-inhibitory activity [1]: have in vitro angiogenesis-inhibitory activities
influence onto the recruitment of the regulatory subunit (p85) of PI3K by IRS-1 [4]: very strong inhibitory effects
